Non-standard residues stand in square brackets, D forms with d. Residues, ends and D or L forms follow the SMILES beside them. No end group written: not given here. pGlu = O=C1CC[C@@H](C(=O)O)N1
System: Flymphocytes
Experiment: Recovery assay of Flymphocytes (in vitro)
Assay type: cell-based
Conditions: positive for immunostimulation and negative for immunosuppression
From the text: As is evident from the general formula I in comparison with the above structure of the natural substance, the compounds of the present invention, besides optional shortening at the N-terminus, comprise a C-terminal augmentation predominantly by an additional amino-acid residue or residues bearing an amide moiety.

| Compound | Recovery Assay of Flymbocytes differential count [%] |
| --- | --- |
| C[C@H](NC(=O)[C@@H]1CCC(=O)N1)C(=O)N[C@@H](CCCCN)C(=O)N[C@@H](CO)C(=O)N[C@@H](CCC(N)=O)C(=O)NCC(=O)NCC(=O)N[C@@H](CO)C(=O)N[C@@H](CC(N)=O)C(=O)NCC(N)=O ([pGlu]AKSQGGSNG-NH2) | 6.31 |
| C[C@H](NC(=O)[C@@H]1CCC(=O)N1)C(=O)N[C@@H](CCCCN)C(=O)N[C@@H](CO)C(=O)N[C@@H](CCC(N)=O)C(=O)NCC(=O)NCC(=O)N[C@@H](CO)C(=O)N[C@@H](CC(N)=O)C(=O)N[C@@H](Cc1ccccc1)C(N)=O [p-Glu--D-Gln--E--PheNH2, Pyroglutamyl-alanyl-lysyl-seryl-glutaminyl-glycyl-glycyl-seryl-asparaginyl-phenylalanine amide] ([pGlu]AKSQGGSNF-NH2) | 7.54 |
| NC(=O)CNC(=O)[C@H](CC(N)=O)NC(=O)[C@H](CO)NC(=O)CNC(=O)CNC(=O)[C@@H]1CCC(=O)N1 [p-Glu--E--GlyNH2, Pyroglutamyl-glycyl-glycyl-seryl-asparaginyl-glycine amide] ([pGlu]GGSNG-NH2) | 6.35 |
| NC(=O)C[C@H](NC(=O)[C@H](CO)NC(=O)CNC(=O)CNC(=O)[C@@H]1CCC(=O)N1)C(=O)N[C@@H](Cc1ccccc1)C(N)=O [p-Glu--E--PheNH2, Pyroglutamyl-glycyl-glycyl-seryl-asparaginyl-phenylalanine amide] ([pGlu]GGSNF-NH2) | 2.89 |
| AKSQGGSNF-NH2 [D-Gln--E--PheNH2, Alanyl-lysyl-seryl-glutaminyl-glycyl-glycyl-seryl-asparaginyl-phenylalanine amide] | 16.09 |
| AKSQGGSNG-NH2 [D-Gln--E--GlyNH2, Alanyl-lysyl-seryl-glutaminyl-glycyl-glycyl-seryl-asparaginyl-glycine amide] | 12.75 |
